Laboratory results: ChEMBL document CHEMBL2157896, “Engineering pH-gated transitions for selective and efficient double-strand DNA photocleavage in hypoxic tumors” (J Med Chem, 2011)
Active and inactive are the calls of the source. The calls are words filed in the database; no cut-off is given here.

Assays:
Nucleic Acid [1] = assay: Induction of photochemical DNA cleavage in Escherichia coli pBR322 assessed as form 3 level at 15 uM in pH 6.0 phosphate buffer measured after 0.5 mins of UV irradiation; format: nucleic-acid assay
Nucleic Acid [2] = assay: Induction of photochemical DNA cleavage in Escherichia coli pBR322 assessed as form 3 level at 15 uM in pH 8.0 phosphate buffer measured after 4 mins of UV irradiation; format: nucleic-acid assay
A-375 [3] = assay: Drug uptake in human A375 cells at 30 uM incubated for 30 mins by differential interference contrast microscopy; format: ADME, cell-based; conditions: a-375, 0.5 h
Nucleic Acid [4] = assay: Induction of photochemical DNA cleavage in Escherichia coli pBR322 assessed as form I level at 15 uM in pH 8.0 phosphate buffer measured after 6 mins of UV irradiation; format: nucleic-acid assay
Nucleic Acid [5] = assay: Induction of photochemical DNA cleavage in Escherichia coli pBR322 assessed as form 3 level at 15 uM in pH 8.0 phosphate buffer measured after 6 mins of UV irradiation; format: nucleic-acid assay
Nucleic Acid [6] = assay: Induction of photochemical DNA cleavage in Escherichia coli pBR322 assessed as form 2 level at 15 uM in pH 6.0 phosphate buffer measured after 1 min of UV irradiation; format: nucleic-acid assay
Nucleic Acid [7] = assay: Induction of photochemical DNA cleavage in Escherichia coli pBR322 assessed as form 2 level at 15 uM in pH 7.0 phosphate buffer measured after 1 min of UV irradiation; format: nucleic-acid assay
Nucleic Acid [8] = assay: Induction of photochemical DNA cleavage in Escherichia coli pBR322 assessed as form I level at 15 uM in pH 6.0 phosphate buffer measured after 1 min of UV irradiation; format: nucleic-acid assay
Nucleic Acid [9] = assay: Induction of photochemical DNA cleavage in Escherichia coli pBR322 assessed as form 3 level at 15 uM in pH 8.0 phosphate buffer measured after 1 min of UV irradiation; format: nucleic-acid assay
Nucleic Acid [10] = assay: Induction of photochemical DNA cleavage in Escherichia coli pBR322 assessed as form 3 level at 15 uM in pH 8.0 phosphate buffer measured after 8 mins of UV irradiation; format: nucleic-acid assay
Nucleic Acid [11] = assay: Induction of photochemical DNA cleavage in Escherichia coli pBR322 assessed as form 3 level at 15 uM in pH 6.0 phosphate buffer measured after 8 mins of UV irradiation; format: nucleic-acid assay
Nucleic Acid [12] = assay: Induction of photochemical DNA cleavage in Escherichia coli pBR322 assessed as form 2 level at 15 uM in pH 7.0 phosphate buffer measured after 0.5 mins of UV irradiation; format: nucleic-acid assay
Nucleic Acid [13] = assay: Induction of photochemical DNA cleavage in Escherichia coli pBR322 assessed as form I level at 15 uM in pH 8.0 phosphate buffer measured after 10 mins of UV irradiation; format: nucleic-acid assay
Nucleic Acid [14] = assay: Induction of photochemical DNA cleavage in Escherichia coli pBR322 assessed as form I level at 15 uM in pH 8.0 phosphate buffer measured after 4 mins of UV irradiation; format: nucleic-acid assay
Nucleic Acid [15] = assay: Induction of photochemical DNA cleavage in Escherichia coli pBR322 assessed as form 3 level at 15 uM in pH 8.0 phosphate buffer measured after 0.5 mins of UV irradiation; format: nucleic-acid assay
Nucleic Acid [16] = assay: Induction of photochemical DNA cleavage in Escherichia coli pBR322 assessed as form 3 level at 15 uM in pH 7.0 phosphate buffer measured after 6 mins of UV irradiation; format: nucleic-acid assay
Nucleic Acid [17] = assay: Induction of photochemical DNA cleavage in Escherichia coli pBR322 assessed as disappearance of supercoiled DNA at 15 uM in pH 6.0 phosphate buffer after 10 mins of UV irradiation; format: nucleic-acid assay
Nucleic Acid [18] = assay: Induction of photochemical DNA cleavage in Escherichia coli pBR322 assessed as form 2 level at 15 uM in pH 8.0 phosphate buffer measured after 8 mins of UV irradiation; format: nucleic-acid assay
Nucleic Acid [19] = assay: Induction of photochemical DNA cleavage in Escherichia coli pBR322 assessed as form I level at 15 uM in pH 7.0 phosphate buffer measured after 4 mins of UV irradiation; format: nucleic-acid assay
Nucleic Acid [20] = assay: Induction of photochemical DNA cleavage in Escherichia coli pBR322 assessed as form I level at 15 uM in pH 6.0 phosphate buffer measured after 10 mins of UV irradiation; format: nucleic-acid assay
Nucleic Acid [21] = assay: Induction of photochemical DNA cleavage in Escherichia coli pBR322 assessed as form 3 level at 15 uM in pH 6.0 phosphate buffer measured after 4 mins of UV irradiation; format: nucleic-acid assay
Nucleic Acid [22] = assay: Induction of photochemical DNA cleavage in Escherichia coli pBR322 assessed as form 3 level at 15 uM in pH 8.0 phosphate buffer measured after 2 mins of UV irradiation; format: nucleic-acid assay
A-375 [23] = assay: Phototoxicity in human A375 cells incubated for 72 hrs exposed to UV light for 10 mins by MTT assay; format: functional; conditions: A-375, light or radiation study
Nucleic Acid [24] = assay: Induction of DNA cleavage in Escherichia coli pBR322 assessed as form3/form2 ratio at 15 uM at pH 6 to 9 after 10 mins of UV irradiation; format: nucleic-acid assay
Nucleic Acid [25] = assay: Induction of photochemical DNA cleavage in Escherichia coli pBR322 assessed as form 2 level at 15 uM in pH 8.0 phosphate buffer measured after 4 mins of UV irradiation; format: nucleic-acid assay
Nucleic Acid [26] = assay: Induction of photochemical DNA cleavage in Escherichia coli pBR322 assessed as form 2 level at 15 uM in pH 6.0 phosphate buffer measured after 10 mins of UV irradiation; format: nucleic-acid assay
Nucleic Acid [27] = assay: Induction of photochemical DNA cleavage in Escherichia coli pBR322 assessed as form 2 level at 15 uM in pH 8.0 phosphate buffer measured after 1 min of UV irradiation; format: nucleic-acid assay
Nucleic Acid [28] = assay: Induction of DNA damage in human […] cells at 30 uM incubated for 3 hrs using cells exposed to UV irradiation for 20 mins by single cell gel electrophoresis; format: cell-based
Nucleic Acid [29] = assay: Induction of DNA damage in human […] cells at 30 uM incubated for 3 hrs by single cell gel electrophoresis; format: cell-based
Nucleic Acid [30] = assay: Induction of photochemical DNA cleavage in Escherichia coli pBR322 assessed as disappearance of supercoiled DNA at 15 uM in pH 7.0 phosphate buffer after 10 mins of UV irradiation; format: nucleic-acid assay
Nucleic Acid [31] = assay: Induction of photochemical DNA cleavage in Escherichia coli pBR322 assessed as form I level at 15 uM in pH 8.0 phosphate buffer measured after 0.5 mins of UV irradiation; format: nucleic-acid assay
Nucleic Acid [32] = assay: Induction of photochemical DNA cleavage in Escherichia coli pBR322 assessed as form 2 level at 15 uM in pH 7.0 phosphate buffer measured after 10 mins of UV irradiation; format: nucleic-acid assay
Nucleic Acid [33] = assay: Induction of photochemical DNA cleavage in Escherichia coli pBR322 assessed as form I level at 15 uM in pH 8.0 phosphate buffer measured after 2 mins of UV irradiation; format: nucleic-acid assay
Nucleic Acid [34] = assay: Induction of photochemical DNA cleavage in Escherichia coli pBR322 assessed as form I level at 15 uM in pH 6.0 phosphate buffer measured after 0.5 mins of UV irradiation; format: nucleic-acid assay
Nucleic Acid [35] = assay: Induction of photochemical DNA cleavage in Escherichia coli pBR322 assessed as form 2 level at 15 uM in pH 7.0 phosphate buffer measured after 4 mins of UV irradiation; format: nucleic-acid assay
A-375 [36] = assay: Drug uptake in human A375 cells at 30 uM incubated for 30 mins by fluorescence microscopy; format: ADME, cell-based; conditions: a-375, 0.5 h

## NCCCC[C@H](N)C(=O)NCCCC[C@H](N)C(=O)Nc1ccc(C#Cc2c(F)c(F)nc(F)c2F)cc1.O=C(O)C(F)(F)F
Nucleic Acid [1]
  Activity: 13.5%
Nucleic Acid [2]
  Activity: 0%
A-375 [3]
  Drug uptake: Active
Nucleic Acid [4]
  Activity: 40.8%
Nucleic Acid [5]
  Activity: 0%
Nucleic Acid [6]
  Activity: 52.7%
Nucleic Acid [7]
  Activity: 47.3%
Nucleic Acid [8]
  Activity: 30.2%
Nucleic Acid [9]
  Activity: 0%
Nucleic Acid [10]
  Activity: 12.1%
Nucleic Acid [11]
  Activity: 65%
Nucleic Acid [12]
  Activity: 35.4%
Nucleic Acid [13]
  Activity: 26.3%
Nucleic Acid [14]
  Activity: 58.6%
Nucleic Acid [15]
  Activity: 0%
Nucleic Acid [16]
  Activity: 28.1%
Nucleic Acid [17]
  Activity: Active
Nucleic Acid [18]
  Activity: 45.6%
Nucleic Acid [19]
  Activity: 22.6%
Nucleic Acid [20]
  Activity: 0%
Nucleic Acid [21]
  Activity: 34.9%
Nucleic Acid [22]
  Activity: 0%
A-375 [23]
  CC50: 270 nM
Nucleic Acid [24]
  Ratio: 2
Nucleic Acid [25]
  Activity: 41.4%
Nucleic Acid [26]
  Activity: 21.3%
Nucleic Acid [27]
  Activity: 16.1%
Nucleic Acid [28]
  Activity: Active
Nucleic Acid [29]
  Activity: Active
Nucleic Acid [30]
  Activity: Active
Nucleic Acid [31]
  Activity: 86.4%
Nucleic Acid [32]
  Activity: 47.8%
Nucleic Acid [33]
  Activity: 77.8%
Nucleic Acid [34]
  Activity: 26.5%
Nucleic Acid [35]
  Activity: 52.4%
A-375 [36]
  Drug uptake: Active
